Laboratory results taken from the supplement of paper PMC10307832.

What was measured:
Assay in all cases: relative viability (nuclei count vs DMSO), 5 days (fraction); higher = more cells survive
[1] = compound: C1=CC=C2C(=C1)N=C(S2)C(C#N)C3=NC(=NC=C3)NCCC4=CN=CC=C4 + CS(=O)(=O)N1CCN(Cc2cc3nc(-c4cccc5[nH]ncc45)nc(N4CCOCC4)c3s2)CC1 [Pictilisib] (partner 1 µM)
Procedure, shortened: (§1)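 Dosing by pin tool came one day after lung cancer cell lines were seeded in 1536-well plates, using either one drug or a fixed anchor-drug dose plus five library-drug doses (not always all listed) in √10 steps. After 5 days, nuclei were counted on 4× images. Relative viability is treated-well nuclei count divided by vehicle-well nuclei count, and values are medians of duplicate plates.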

[2] = compound: C1=CC=C2C(=C1)N=C(S2)C(C#N)C3=NC(=NC=C3)NCCC4=CN=CC=C4 + C[C@@H](Oc1cc(-c2cnn(C3CCNCC3)c2)cnc1N)c1c(Cl)ccc(F)c1Cl [Crizotinib] (partner 1 µM)
Procedure, shortened: as §1

CUDC-101 + OSI-027 = compound: C#Cc1cccc(Nc2ncnc3cc(OC)c(OCCCCCCC(=O)NO)cc23)c1 [CUDC-101] + COc1cccc2cc(-c3nc([C@H]4CC[C@H](C(=O)O)CC4)n4ncnc(N)c34)[nH]c12 [OSI-027] (partner 0.5 µM)
Procedure, shortened: as §1

Vandetanib + Bortezomib = compound: COc1cc2/c(=N/c3ccc(Br)cc3F)nc[nH]c2cc1OCC1CCN(C)CC1 [Vandetanib] + CC(C)C[C@H](NC(=O)[C@H](Cc1ccccc1)NC(=O)c1cnccn1)B(O)O [Bortezomib] (partner 0.002 µM)
Procedure, shortened: as §1

Cell Line | relative viability ([1]; first compound 0.005 µM) | relative viability ([1]; first compound 0.01581 µM) | relative viability ([1]; first compound 0.05 µM) | relative viability ([1]; first compound 0.1581 µM) | relative viability ([1]; first compound 0.5 µM) | relative viability ([2]; first compound 0.005 µM) | relative viability ([2]; first compound 0.01581 µM) | relative viability ([2]; first compound 0.05 µM) | relative viability ([2]; first compound 0.1581 µM) | relative viability ([2]; first compound 0.5 µM) | relative viability (CUDC-101 + OSI-027; first compound 0.01 µM) | relative viability (CUDC-101 + OSI-027; first compound 0.03162 µM) | relative viability (CUDC-101 + OSI-027; first compound 0.1 µM) | relative viability (CUDC-101 + OSI-027; first compound 0.3162 µM) | relative viability (CUDC-101 + OSI-027; first compound 1 µM) | relative viability (Vandetanib + Bortezomib; first compound 0.02 µM) | relative viability (Vandetanib + Bortezomib; first compound 0.06325 µM) | relative viability (Vandetanib + Bortezomib; first compound 0.2 µM) | relative viability (Vandetanib + Bortezomib; first compound 0.6325 µM) | relative viability (Vandetanib + Bortezomib; first compound 2 µM)
NCI-H596 | 0.378 | 0.349 | 0.383 | 0.46 | 0.392 | 0.864 | 1.03 | 0.939 | 1.16 | 0.952 | 0.655 | 0.715 | 0.783 | 0.805 | 0.751 | 0.998 | 1 | 0.965 | 0.717 | 0.958
NCI-H647 |  | 0.301 | 0.391 | 0.556 | 0.452 |  | 1 | 0.89 | 1.38 | 0.874 | 0.68 | 0.668 | 0.783 | 0.596 | 0.383 | 0.962 | 0.947 | 1.05 | 0.817 | 0.804
NCI-H650 | 0.728 | 0.845 | 0.804 | 0.934 | 0.901 | 0.484 | 0.67 | 0.568 | 0.672 | 0.704 | 0.58 | 0.569 | 0.622 | 0.587 | 0.474 | 0.757 | 0.877 | 0.705 | 0.862 | 0.596
NCI-H661 | 0.382 | 0.358 | 0.44 | 0.403 | 0.211 | 1.24 | 1.26 | 0.99 | 1.06 | 0.98 | 0.709 | 0.808 | 0.735 | 0.711 | 0.346 | 0.828 | 0.943 | 0.769 | 0.807 | 0.702
NCI-H727 | 0.553 | 0.304 | 0.299 | 0.473 | 0.37 | 0.793 | 0.803 | 0.739 | 0.836 | 0.529 | 0.633 | 0.601 | 0.7 | 0.578 | 0.369 | 0.791 | 0.657 | 0.783 | 0.856 | 0.872
NCI-H838 | 0.463 | 0.413 | 0.439 | 0.612 | 0.391 | 0.546 | 0.87 | 0.817 | 0.861 | 0.555 | 0.411 | 0.354 | 0.431 | 0.523 | 0.391 | 0.73 | 0.807 | 0.664 | 0.706 | 0.614
NCI-H1355 | 0.535 | 0.388 | 0.365 | 0.503 | 0.439 | 1.11 | 1.16 | 1.04 | 1.03 | 0.949 | 0.393 | 0.385 | 0.411 | 0.416 | 0.309 | 1.22 | 1.18 | 1.16 | 1.22 | 1.27
NCI-H1437 | 0.474 | 0.39 | 0.398 | 0.539 | 0.361 | 0.66 | 1.09 | 0.932 | 1.09 | 0.679 | 0.857 | 0.876 | 0.886 | 0.952 | 0.662 | 0.486 | 0.56 | 0.47 | 0.506 | 0.398
